Test results published in patent publication US10371695B2, “Identifying compounds modifying a cellular phenotype” (2cureX ApS, priority 2014, dated 2019).

Assays:
[1] = test system: micro-tumors (spheroids) from patient tumor tissue; test: Chemo-sensitivity screening of compounds distributed in Matrigel on patient micro-tumors (growth by imaged area); type: cell-based, human; settings: for cancer cell proliferation (spheroid/micro-tumour growth) inhibition: increasing concentrations, inhibited = spheroid grown to less than 1.5x original size after 7 days at least at highest concentrations tested
Description: Materials and Solutions: • Support: Matrigel® available from BD Biosciences. • Arrays: Micro slide format arrays with 96 individual wells surrounded by a common reservoir.
Compounds, Matrigel® and arrays are kept at 5° C. (cooling device) throughout the process when not in the freezer. • 1. Compounds were diluted in Matrigel® (Fluid) as single compounds and/or in combinations equal to standard treatment regimens of patients with colorectal cancer. • 2. Matrigel® with compounds were added to individual wells of the arrays (Fluid) • 3. Arrays were centrifuged 10 min at 3000 RPM (cold) • 4. Arrays were stored at −18° C. (Solid)—ready for use
(§1) Materials and Solutions: • Array prepared as described in Example 1 • STEM media: DMEM/F12 w. 15% Hepes (Gibco 11330-032), StemPro hESC SFM growth supplement (50×):1× • BSA 25%, Gibco A10008-01: 1.8%, FGF-basic (10 ug/ml): 8 ng/ml, 2-Mercaptoethanol Gibco 21985 (55 mM): 0.1 mM, Penicillin/streptomycin 200 U/ml/200 ug/ml (=2× usual conc.), Gentamycin Sigma G1272: 1:100 (=2× usual conc.), Amphotericin (fungicide): 1:100 (=1× usual conc.), Hepes 15 mM • Cooling device for keeping 5° C. • Incubator, 37° C. (CO2, 99% humidity for cell culture)
Procedure: • 1. Tumor tissue from patient was prepared to form a population of small individual micro-tumors (spheroids) • 2. Micro-tumors were suspended in cold STEM media • 3. The array was taken directly from freezer and placed on the cooling device (solid) • 4. 3 ml micro tumor suspension was added to the reservoir of the array and the array was left for 7 min. to allow cells to distribute and settle into individual wells of the array • 5. STEM media was gently removed from reservoir—leaving the micro tumors in the wells • 6. The array was moved to refrigerator (5° C.) and left for 30 min to allow Matrigel® to liquefy and the cells to settle at the bottom of the array (fluid) • 7. Hereafter the array was incubated at 37° C. for 1 hr. to allow the Matrigel® to solidify and entrap the cells in a certain position (solid) • 8. The array with micro-tumors positioned at the bottom was imaged at an automated microscope • 9. Images were acquired every day for 10 days and micro-tumor growth (and inhibition of growth) was measured by quantifying the area of the micro-tumors.
In general cancer cell proliferation as evidenced by spheroid (micro-tumour) growth was considered inhibited if the spheroid had grown to less than 1.5× the original size after 7 days of incubation at least at the highest concentrations tested.

[2] = test system: micro-tumors (spheroids) from patient tumor tissue; test: Screening of compounds imbedded in thermo sensitive nano-particles distributed in Matrigel on patient micro-tumors; type: cell-based, human; settings: FIG. 4; images at day 0, 3, 5 and 7; compound released from nano-particles at 42° C.
Description: Materials and Solutions: • Nano-particles containing chemo therapeutic compounds • Support: Matrigel® available from BD Biosciences, • Arrays: Micro slide format array with 96 individual wells surrounded by a common reservoir as described in Example 1 • Cooling device for keeping 5° C.
Nano-particles, Matrigel® and arrays were kept at 5° C. (cooling block) throughout the process when not in the freezer. • 1. Compound containing nano-particles were diluted in Matrigel® (fluid). • 2. Matrigel containing the nano-particles (from above point 1) were added to individual wells of the array • 3. The arrays were centrifuged 10 min at 3000 RPM (cold) • 4. The arrays were stored at −18° C. for 24 hrs. (solid)
as §1, with “prepared accordingly to” for “prepared as described in”, “Example 2” for “Example 1”, “•” for “• Cooling device for keeping 5° C. •”, “C. […]” for “C. (CO2, 99% humidity for cell culture)”
Procedure: • 1. […] Images were acquired every day for 10 days and micro-tumor growth (and inhibition of growth) was measured by quantifying the area of the micro-tumors.

SMILES | cancer cell proliferation (spheroid/micro-tumour growth) inhibition ([1]; patient 1, FIG. 2a) | cancer cell proliferation (spheroid/micro-tumour growth) inhibition ([1]; patient 2, FIG. 2a) | micro-tumour growth, proliferation of cancer cells [2] | time trace of micro-tumour (spheroid) growth, cancer cell proliferation ([1]; FIG. 3, presence or absence of compound)
O=c1[nH]cc(F)c(=O)[nH]1 [5FU] | inhibited | inhibited |  | 
CCc1c2c(nc3ccc(O)cc13)-c1cc3c(c(=O)n1C2)COC(=O)[C@]3(O)CC [SN38] | inhibited | inhibited |  | 
CCc1c2c(nc3ccc(OC(=O)N4CCC(N5CCCCC5)CC4)cc13)-c1cc3c(c(=O)n1C2)COC(=O)[C@]3(O)CC [Irinotecan] |  |  | inhibits proliferation | clearly inhibited cancer cell proliferation
O=C1[O][Pt]2([NH][C@@H]3CCCC[C@H]3[NH]2)[O]C1=O [Oxaliplatin] |  | inhibited |  | 
